The values below come from patent US8658668B2, “PI3 kinase/mTOR dual inhibitor” (Eli Lilly and Company, priority 2011, dated 2014).

One data set deals with S6RP(pS240/242). Briefly: Phosphorylated S6RP in U87MG cells. It is filed as cell-based. The following applies: Homo sapiens, U-87 MG, n = 3, read-out: S6RP(pS240/242) Absolute IC50. The protocol: This homogeneous assay format uses immuno-sandwich capture of the phosphorylated analyte and then detection with antibody-coated Alphascreen beads to generate an amplified signal.
Maintain U87MG cells in U87MG growth medium consisting of DMEM (GIBCO 11965-092) supplemented with 10% fetal bovine serum (FBS, GIBCO, 10091-141), 1% nonessential amino acids (GIBCO, 11140-050) and 1% sodium pyruvate (GIBCO, 11360-070). Harvest cells using standard cell culture procedures and then count using Vi-Cell. Plate 100 μL of U87MG cells in growth medium (50,000 cells/well) into Costar #3596 96 well plates and incubate overnight at 37° C., 5% CO2.
Incubate for one h at 37° C., then remove the medium and add 50 μL of 1× SureFire Lysis Buffer (TGR Biosciences SureFire® Kit component) to each well and incubate at room temperature for 10 min with gentle shaking Transfer 6 μL lysate and 10 μL reaction mixture (60 parts reaction buffer/10 parts activation buffer/1 part each of donor and acceptor beads, Perkin Elmer, 6760617R) to a 384 well proxiplate (Perkin Elmer, 6006280) for the p-p70S6 kinase (Thr389) and p-AKT(Ser473) assays. Seal the plate and incubate at RT for 4 h. […] Read the plates on a Perkin Elmer EnVision equipped with a TurboModule using standard AlphaScreen® settings (Ex680 nm and Em520-620 nm). […]

Data set [1] concerns CXF 1783 human tumor xenograft cells. Description: Oncotest tumor clonogenic assay, CXF 1783. It is filed as cell-based. The following applies: colony formation, Colon CXF 1783, colon carcinoma, wd, read-out: Absolute IC50.
The test system of data set [2] is HNXF 908 human tumor xenograft cells. Briefly: Oncotest tumor clonogenic assay, HNXF 908. The following applies: colony formation, Head and Neck HNXF 908, squamous epithelium carcinoma, md, read-out: Absolute IC50. The class given is cell-based.
The test system of data set [3] is LXFL 529 human tumor xenograft cells. Briefly: Oncotest tumor clonogenic assay, LXFL 529. The class given is cell-based. Particulars: colony formation, NSCLC LXFL 529, large cell lung carcinoma, pd, read-out: Absolute IC50.
The subject of data set [4] is MAXF 401 human tumor xenograft cells. Description: Oncotest tumor clonogenic assay, MAXF 401. The class given is cell-based. The following applies: MAXF401, colony formation, Mammary MAXF 401, pap. adeno carcinoma, wd, read-out: Absolute IC50.
Data set [5] concerns MEXF 462 human tumor xenograft cells. Description: Oncotest tumor clonogenic assay, MEXF 462. It is filed as cell-based. Particulars: colony formation, Melanoma MEXF 462, amelanotic melanoma, md, read-out: Absolute IC50.
Data set [6] relates to OVXF 1353 human tumor xenograft cells. Description: Oncotest tumor clonogenic assay, OVXF 1353. It is filed as cell-based. Particulars: colony formation, Ovary OVXF 1353, adeno carcinoma, pd, read-out: Absolute IC50.
Data set [7] concerns PAXF 736 human tumor xenograft cells. Description: Oncotest tumor clonogenic assay, PAXF 736. It is filed as cell-based. The following applies: PAXF736, colony formation, Pancreas PAXF 736, adeno carcinoma, pd, read-out: Absolute IC50.
Data set [8] relates to PXF 541 human tumor xenograft cells. Briefly: Oncotest tumor clonogenic assay, PXF 541. It is filed as cell-based. The following applies: colony formation, Pleuramesothelioma PXF 541, invasive pleuramesothelioma, read-out: Absolute IC50.
In data set [9] the test system is RXF 631 human tumor xenograft cells. Description: Oncotest tumor clonogenic assay, RXF 631. The class given is cell-based. Particulars: colony formation, Renal RXF 631, hypernephroid adeno carcinoma, wd, read-out: Absolute IC50.
Data set [10] deals with human glioblastoma cells U87MG. Description: Xenograft tumor model, U87MG. The class given is in vivo, mouse. Particulars: oral gavage. Here is the method: (§1) Expand human glioblastoma cells U87MG and human renal carcinoma cells 786-O, in culture, harvest and inject subcutaneously onto the rear flank of athymic nude mice. Expand human non-small cell lung cancer cells NCI-H1975 in culture, harvest and inject subcutaneously onto the rear flank of CD-1 nu/nu mice. Prepare test compound in an appropriate vehicle and administer by oral gavage when tumors are established (7-21 days after implant). Tumor response is determined by tumor volume measurement performed twice a week during the course of treatment. Body weight is taken as a general measurement of toxicity.

Data set [11] concerns human renal carcinoma cells 786-O. Briefly: Xenograft tumor model, 786-O. Particulars: oral gavage. The class given is in vivo, mouse. The protocol:
as §1

Data set [12] is described as follows: Pharmacokinetic properties in dogs. It is filed as in vivo, dog. The following applies: for AUC: both sexes, beagle, dog, plasma, oral gavage, HEC suspension. Here is the method:
The range of administered doses is between 1 and 12 mg/kg in an HEC suspension.
Blood samples are collected into tubes containing potassium ethylenediaminetetraacetic acid from each dog at 0 (pre-dose), 0.5, 1, 2, 4, 8, and 24 hours post dose. Some studies also include samples collected at 0.25 hr and 12 hr time points. These samples are centrifuged to obtain plasma, which is subsequently frozen prior to analysis. […] The standard curves range from 1 to 5000 ng/mL. Plasma concentrations above the upper limit of quantitation are determined by dilution.

As for `CO[C@@H](C)Cn1c(=O)n(C)c2cnc3ccc(-c4cncc(C(C)(C)O)c4)cc3c21` [Example 1, 8-[5-(1-Hydroxy-1-methylethyl)pyridin-3-yl]-1-[(2S)-2-methoxypropyl]-3-methyl-1,3-dihydro-2H-imidazo[4,5-c]quinolin-2-one], the IC50 turned out to be 19.1 nM in the data set with S6RP(pS240/242); 29 nM in data set [1]; 52 nM in data set [2]; 128 nM in data set [3]; 150 nM in [4]; 156 nM in data set [5]. In addition, the IC50 in data set [6] was over 200 nM; in [7] it was 174 nM; in data set [8], 56 nM; in data set [9], 80 nM. Further, the “% TGI” value in data set [10] (3 mg/kg BID) came to 38.6%; in [10] (6 mg/kg BID), 57.7%; in data set [10] (10 mg/kg BID) it was 86.1%; in data set [10] (12 mg/kg QD), 53.4%; in data set [11] (3 mg/kg BID), 33.9%; in data set [11] (6 mg/kg BID), 56.9%. For the same compound, the “% TGI” value in data set [11] (10 mg/kg BID) turned out to be 70.2%. The exposure (AUC) in data set [12] (1 mg/kg, 10 animals) was 1160 ng·h/mL; in data set [12] (3 mg/kg, 10 animals) it was 3780 ng·h/mL; in data set [12] (4.5 mg/kg, 2 animals), 5920 ng·h/mL; in [12] (6 mg/kg, 2 animals), 9620 ng·h/mL; in data set [12] (9 mg/kg, 2 animals), 10800 ng·h/mL; in data set [12] (12 mg/kg, 2 animals), 19200 ng·h/mL. Further, the “correlation of determination R^2, linear regression of the mean AUC values for each dose” value in [12] (oral, 1 to 12 mg/kg) is reported as 0.96.
